Measurements reported in patent EP0639573A1, “Benzocondensed five membered heterocycles, process of their preparation, their use as drug, as diagnostic means and pharmaceuticals containing it” (HOECHST AKTIENGESELLSCHAFT, priority 1993, dated 1995).
Counter-ions that a name gives are not always drawn.

Key:
Rattenherzen = settings: isolated rat hearts; Eur. Heart J. 9 (suppl. 1): 167 (1988); cited from earlier work
Na⁺/H⁺-Exchanger = molecular target: T1, Na⁺/H⁺-Exchanger (Oryctolagus cuniculus, UniProt P23791); test: Inhibition of the Na+/H+ exchanger of rabbit erythrocytes (amiloride-sensitive Na+ influx, flame photometry); type: cell-based, Kaninchen; settings: Kaninchenerythrocyten; hyperosmolar salt-sucrose medium, pH 7,4, 37°C; rabbits on 2% cholesterol diet; read-out: IC₅₀
T1 construct: den Na⁺-Influx in die Erythrocyten via Na⁺/H⁺-Austausch flammenphotometrisch bestimmen zu können; from tissue; host or cells: Erythrocytes in whole blood from ear arteries of cholesterol-fed White New Zealand rabbits (Ivanovas)
Excerpt: Inhibition des Na⁺/H⁺-Exchangers von Kaninchenerythrocyten
Weiße Neuseeland-Kaninchen (Ivanovas) erhielten eine Standard-Diät mit 2% Cholesterin für sechs Wochen, um den Na⁺/H⁺-Austausch zu aktivieren und so den Na⁺-Influx in die Erythrocyten via Na⁺/H⁺-Austausch flammenphotometrisch bestimmen zu können. Das Blut wurde den Ohrarterien entnommen und durch 25 IE Kalium-Heparin ungerinnbar gemacht. Ein Teil jeder Probe wurde zur Doppelbestimmung des Hämatokrits durch Zentrifugieren benutzt. Aliquots von jeweils 100 µl dienten zur Messung des Na⁺-Ausgangsgehalts der Erythrocyten.
Um den Amilorid-sensitiven Natrium-Influx zu bestimmen, wurden 100 µl jeder Blutprobe in jeweils 5 ml eines hyperosmolaren Salz-Sucrose-Mediums (mmol/l: 140 NaCl, 3 KCl, 150 Sucrose, 0,1 Ouabain, 20 Tris-hydroxymethylaminomethan) bei pH 7,4 und 37°C inkubiert. Die Erythrocyten wurden danach dreimal mit eiskalter MgCl₂-Ouabain-Lösung (mmol/l: 112 MgCl₂, 0,1 Ouabain) gewaschen und in 2,0 ml destilliertem Wasser hämolysiert. Der intrazelluläre Natriumgehalt wurde flammenphotometrisch bestimmt.
Der Na⁺ -Nettoinflux wurde aus der Differenz zwischen Natrium-Ausgangswerten und dem Natriumgehalt der Erythrocyten nach Inkubation errechnet. Der Amilorid-hemmbare Natrium-Influx ergab sich aus der Differenz des Natriumgehalts der Erythrocyten nach Inkubation mit und ohne Amilorid 3 x 10⁻⁴ mol/l. Auf diese Weise wurde auch bei den erfindungsgemäßen Verbindungen verfahren.

T1 sequence (P23791 whole entry): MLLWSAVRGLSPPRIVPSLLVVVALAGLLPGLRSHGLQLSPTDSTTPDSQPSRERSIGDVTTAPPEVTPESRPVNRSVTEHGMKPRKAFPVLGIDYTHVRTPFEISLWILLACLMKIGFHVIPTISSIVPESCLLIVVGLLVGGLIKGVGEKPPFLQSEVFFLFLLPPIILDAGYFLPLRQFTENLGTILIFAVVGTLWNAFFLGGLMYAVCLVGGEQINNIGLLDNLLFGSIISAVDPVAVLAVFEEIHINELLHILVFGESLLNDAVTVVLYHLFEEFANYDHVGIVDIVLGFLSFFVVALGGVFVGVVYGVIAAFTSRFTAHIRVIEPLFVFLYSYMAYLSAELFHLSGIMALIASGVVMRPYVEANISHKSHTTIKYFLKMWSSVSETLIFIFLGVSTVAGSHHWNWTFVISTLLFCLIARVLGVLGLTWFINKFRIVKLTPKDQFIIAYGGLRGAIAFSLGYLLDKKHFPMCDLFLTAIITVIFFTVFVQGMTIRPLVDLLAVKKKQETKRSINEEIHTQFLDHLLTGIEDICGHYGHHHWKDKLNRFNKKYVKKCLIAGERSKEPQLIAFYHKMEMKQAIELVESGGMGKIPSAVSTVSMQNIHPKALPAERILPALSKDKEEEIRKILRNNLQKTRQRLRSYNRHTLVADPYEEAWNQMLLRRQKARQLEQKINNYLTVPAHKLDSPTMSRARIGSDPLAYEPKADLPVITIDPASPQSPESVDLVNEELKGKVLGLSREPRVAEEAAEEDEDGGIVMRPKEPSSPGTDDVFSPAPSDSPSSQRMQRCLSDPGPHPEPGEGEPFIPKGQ

NC(N)=NC(=O)c1nc(Cl)c(N)nc1N [Amilorid]
künstlich ausgelöstes Kammerflimmern (Rattenherzen): völlig unterdrückt

CCn1c(C(=O)N=C(N)N)cc2cc(Cl)ccc21 [Beispiel 52, 5-Chlor-1-ethyl-2-indolylcarbonyl-guanidin-hydrochlorid]
IC50 (Na⁺/H⁺-Exchanger): 40 nM

CCCn1c(C(=O)N=C(N)N)cc2cc(Cl)ccc21 [Beispiel 53, 5-Chlor-1-propyl-2-indolylcarbonyl-guanidin-hydrochlorid]
IC50 (Na⁺/H⁺-Exchanger): 50 nM

CCCCn1c(C(=O)N=C(N)N)cc2cc(Cl)ccc21 [Beispiel 54, 5-Chlor-1-butyl-2-indolylcarbonyl-guanidin-hydrochlorid]
IC50 (Na⁺/H⁺-Exchanger): 200 nM

NC(N)=NC(=O)c1cc2cc(Cl)ccc2n1Cc1ccncc1 [Beispiel 61, 5-Chlor-1-(4-picolyl)-2-indolylcarbonyl-guanidin-dihydrochlorid]
IC50 (Na⁺/H⁺-Exchanger): 300 nM

Cn1c(C(=O)N=C(N)N)c(Cl)c2cc(Cl)ccc21 [Beispiel 69, 3,5-Dichlor-1-methyl-2-indolylcarbonyl-guanidin-hydrochlorid]
IC50 (Na⁺/H⁺-Exchanger): 50 nM

Cn1c(C(=O)N=C(N)N)c(Cl)c2cc(F)ccc21 [Beispiel 86, 3-Chlor-5-fluor-1-methylindolyl-2-carbonsäureguanidid Hydrochlorid]
IC50 (Na⁺/H⁺-Exchanger): 30 nM

CN1c2ccccc2CC1C(=O)N=C(N)N (stereo not shown) [Beispiel 104, 1-Methylindolin-2-carbonsäure-guanidid-hydrochlorid]
IC50 (Na⁺/H⁺-Exchanger): 200 nM

CN1c2ccc(F)cc2CC1C(=O)N=C(N)N (stereo not shown) [Beispiel 106, 5-Fluor-1-methylindolin-2-carbonsäureguanidid Hydrochlorid]
IC50 (Na⁺/H⁺-Exchanger): 50 nM

CCN(c1nc(N)c(C(=O)N=C(N)N)nc1Cl)C(C)C [Ethylisopropylamilorid]
künstlich ausgelöstes Kammerflimmern (Rattenherzen): Noch potenter als Amilorid
